From patent US8283346B2, “Human immunodeficiency virus protease inhibitors” (The Trustees of the Stevens Institute of Technology, priority 2009, dated 2012) come the findings set out here.

In the experiment the target is T1, HIV-1 protease (Human immunodeficiency virus type 1 group M subtype B, UniProt P04585).
T1 construct: The HIV-1 protease is composed of 99 amino acids
The experiment in a line: In vitro HIV-1 protease assay. It counts as biochemical. To be noted: for biological activity compared with another named compound, in words: comparator named in the value; for IC50: purified HIV-1 protease 15 picomolar, peptide substrate 440 micromolar, pH 5.5, 30° C., 60 minutes, HPLC fluorescence detection; for fold higher biological activity than the corresponding SRR (C4) diastereomer: SRS compound vs its SRR diastereomer (4 vs 3, 6 vs 5, 17 vs 16, 13 vs 12, 19 vs 18, 23 vs 22, 21 vs 20). How it is done:
Compounds were evaluated for the ability to inhibit the enzymatic activity of HIV-1 protease in an in vitro assay. Protease activity was assessed in reactions catalyzed by purified HIV-1 protease at a concentration of 15 picomolar in buffer (50 mM sodium acetate, pH 5.5, 100 mM NaCl, 1 mg/mL bovine serum albumin) using a peptide substrate with sequence Val-Ser-Gln-Asn-(beta-naphthylalanine)-Pro-IIe-Val at a concentration of 440 micromolar in a final volume of 80 microliters. Compounds in DMSO stock were added to a final DMSO concentration of 2.5% and preincubated with enzyme prior to the initiation of the reaction by addition of substrate. Reactions were incubated at 30° C. for 60 minutes and were then quenched by the addition of 120 microliters 10% H3PO4. The amount of product formed was determined using high performance liquid chromatography with a Vydac C18 column and fluorescence detection of product. Percent inhibition was determined relative to control reactions without inhibitor, and half maximal inhibitory concentration (IC50) values were determined using a standard four parameter fit to the inhibition data. The IC50 is a quantitative measure of the effectiveness of a compound in inhibiting biological or biochemical function that indicates how much a particular compound or other substance is needed to inhibit a given biological process (or component of a process) by half.

The structures appear in SMILES notation. Several values for one entry are separate records, joined by “and”; a condition that tells them apart may be missing. Equal values may be shown once.

For orientation: IC50 means the concentration needed to halve the response being measured. A lower IC50 goes with greater potency in that assay. As for `C=CCOC(=O)N[C@@H](Cc1ccccc1)[C@H](O)CN1C[C@@H](c2ccccc2)Cc2ccccc2S1(=O)=O` [Compound 9], the “biological activity compared with another named compound, in words” value is given as “higher biological activity than that of Compound 3” and half-maximal inhibition (IC50) required 470 nM.

For `C[C@H]1Cc2cc(C(F)(F)F)ccc2S(=O)(=O)N(C[C@@H](O)[C@H](Cc2ccccc2)NC(=O)OC(C)(C)C)C1` [Compound 19], the “biological activity (HIV-1 protease inhibition) in words” value is reported as “not very active”; the “fold higher biological activity than the corresponding SRR (C4) diastereomer” value is given as approximately 18 fold; the midpoint of inhibition, the IC50, lay at 1120 nM.

As to `C[C@H]1Cc2cc(F)ccc2S(=O)(=O)N(C[C@@H](O)[C@H](Cc2ccccc2)NC(=O)OC(C)(C)C)C1` [Compound 13], the “fold higher biological activity than the corresponding SRR (C4) diastereomer” value is on record as approximately 132 fold; the “biological activity compared with another named compound, in words” value is given as “higher biological activity than Compound 15”; it took 119 nM to reach half-maximal inhibition (IC50).

As to `CC(C)(C)OC(=O)N[C@@H](Cc1ccccc1)[C@H](O)CN1CC(c2ccccc2)Cc2ccccc2S1(=O)=O` (mixture of isomers) [Compound 7], the “biological activity compared with another named compound, in words” value was “biological activity higher than that of Compound 1” and the IC50 worked out at 455 nM. With `C=CCOC(=O)N[C@@H](Cc1ccccc1)[C@H](O)CN1C[C@H](C)Cc2ccccc2S1(=O)=O` [Compound 3], half-maximal inhibition (IC50) required 5960 nM.

Consider `CCOC(=O)N[C@@H](Cc1ccccc1)[C@H](O)CN1C[C@@H](c2ccccc2)Cc2ccccc2S1(=O)=O` [Compound 11], for which the “biological activity compared with another named compound, in words” value was “higher biological activity than that of Compound 10” and the IC50 was 864 nM. Regarding `C[C@@H]1Cc2ccc(C(F)(F)F)cc2S(=O)(=O)N(C[C@@H](O)[C@H](Cc2ccccc2)NC(=O)OC(C)(C)C)C1` [Compound 20], half-maximal inhibition (IC50) required 8300 nM. That is a single-digit micromolar value. As to `CC1Cc2ccccc2S(=O)(=O)N(C[C@@H](O)[C@H](Cc2ccccc2)NC(=O)OC(C)(C)C)C1` (mixture of isomers) [Compound 2], the IC50 is 240 nM and 220 nM. Further, the “fold greater activity than compound 1 (R=H)” value (mixture of two C4 diastereomers vs compound 1) was “ten-fold greater activity”. For `CC(C)(C)OC(=O)N[C@@H](Cc1ccccc1)[C@H](O)CN1CCCc2ccccc2S1(=O)=O` [Compound 1], the “biological activity compared with another named compound, in words” value was “much less active when compared to Compound 4”; the IC50 is 2800 nM and 3050 nM. In the case of `C[C@H]1Cc2ccccc2S(=O)(=O)N(C[C@@H](O)[C@H](Cc2ccccc2)NC(=O)OC(C)(C)C)C1` [Compound 15], the “biological activity compared with another named compound, in words” value is “higher biological activity than that of Compound 14” and the IC50 turned out to be 169 nM.

On to `C=CCOC(=O)N[C@@H](Cc1ccccc1)[C@H](O)CN1C[C@@H](C)Cc2ccccc2S1(=O)=O` [Compound 4], for which the “fold higher biological activity than the corresponding SRR (C4) diastereomer” value is reported as “approximately 40 fold” and the IC50 was determined as 157 nM. The molecule `C[C@@H]1Cc2ccccc2S(=O)(=O)N(C[C@@H](O)[C@H](Cc2ccccc2)NC(=O)OC(C)(C)C)C1` [Compound 14] gave an IC50 of 5470 nM.

Turning to `COc1ccc2c(c1)C[C@H](C)CN(C[C@@H](O)[C@H](Cc1ccccc1)NC(=O)OC(C)(C)C)S2(=O)=O` [Compound 23], the “biological activity (HIV-1 protease inhibition) in words” value was “excellent activity”; the “fold higher biological activity than the corresponding SRR (C4) diastereomer” value was approximately 57 fold; the midpoint of inhibition, the IC50, lay at 107 nM. In turn, `C[C@@H]1Cc2cc(F)ccc2S(=O)(=O)N(C[C@@H](O)[C@H](Cc2ccccc2)NC(=O)OC(C)(C)C)C1` [Compound 12] registered an IC50 of 15700 nM. `C[C@H]1Cc2ccccc2S(=O)(=O)N(C[C@@H](O)[C@H](Cc2ccccc2)NC(=O)Oc2ccccc2)C1` [Compound 17]: the “fold higher biological activity than the corresponding SRR (C4) diastereomer” value was “approximately 10 fold”; the “biological activity compared with another named compound, in words” value is listed as “higher activity than Compound 16”; inhibition was half-maximal at 2060 nM (IC50). On to `C[C@H]1Cc2cc(F)ccc2S(=O)(=O)N(C[C@@H](O)[C@H](Cc2ccccc2)NC(=O)C2CN(c3ccccc3)C(=O)O2)C1` (stereo partly drawn) [Compound 24], for which the “biological activity (HIV-1 protease inhibition) in words” value is “highly active” and the IC50 turned out to be 176 nM. Take `C=CCOC(=O)N[C@@H](Cc1ccccc1)[C@H](O)CN1C[C@H](c2ccccc2)Cc2ccccc2S1(=O)=O` [Compound 8]: the “biological activity compared with another named compound, in words” value is “lower biological activity than that of Compound 9” and the IC50 amounted to 3260 nM. For the molecule `CCOC(=O)N[C@@H](Cc1ccccc1)[C@H](O)CN1C[C@@H](C)Cc2ccccc2S1(=O)=O` [Compound 6], the “fold higher biological activity than the corresponding SRR (C4) diastereomer” value is reported as “approximately 54 fold” and half-maximal inhibition (IC50) was put at 199 nM. With `CCOC(=O)N[C@@H](Cc1ccccc1)[C@H](O)CN1C[C@H](c2ccccc2)Cc2ccccc2S1(=O)=O` [Compound 10], the IC50 was 2440 nM. Still for that read-out and setting: under `CCOC(=O)N[C@@H](Cc1ccccc1)[C@H](O)CN1C[C@H](C)Cc2ccccc2S1(=O)=O` [Compound 5] stands 10800 nM. In the case of `COc1ccc2c(c1)C[C@@H](C)CN(C[C@@H](O)[C@H](Cc1ccccc1)NC(=O)OC(C)(C)C)S2(=O)=O` [Compound 22], the “biological activity (HIV-1 protease inhibition) in words” value is listed as “not active” and it took 6100 nM to reach half-maximal inhibition (IC50). With `C[C@H]1Cc2ccc(C(F)(F)F)cc2S(=O)(=O)N(C[C@@H](O)[C@H](Cc2ccccc2)NC(=O)OC(C)(C)C)C1` [Compound 21], the “fold higher biological activity than the corresponding SRR (C4) diastereomer” value is listed as approximately 14 fold and half-maximal inhibition (IC50) required 612 nM.
